Reference: ChEMBL document CHEMBL2021816, “Synthesis and acrosin inhibitory activity of methyl 5-substituted-1H-benzo[d]imidazol-2-yl carbamate derivatives” (Bioorg Med Chem Lett, 2012)

Target: Acrosin (Homo sapiens, UniProt P10323)
Experiment: Inhibition of acrosin in human spermatozoa assessed as effect on amidase activity after 3 hrs incubation by spectrophotometry

Acrosin, sequence (P10323 20-42 limits assumed): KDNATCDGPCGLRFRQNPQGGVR
Acrosin, sequence (P10323 43-343 limits assumed): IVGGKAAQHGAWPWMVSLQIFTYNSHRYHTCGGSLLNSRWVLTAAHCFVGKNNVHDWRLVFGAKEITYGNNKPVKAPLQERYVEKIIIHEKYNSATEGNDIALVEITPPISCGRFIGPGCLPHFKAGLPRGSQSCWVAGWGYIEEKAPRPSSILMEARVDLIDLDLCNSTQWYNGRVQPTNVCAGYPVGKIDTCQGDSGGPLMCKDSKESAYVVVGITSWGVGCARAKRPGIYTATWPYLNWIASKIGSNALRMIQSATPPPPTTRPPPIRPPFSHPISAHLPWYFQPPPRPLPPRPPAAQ

| SMILES | IC50 |
| --- | --- |
| O=Cc1cc(-c2ccc(Cl)cc2Cl)on1 | 1700 µM |
| COC(=O)Nc1nc2ccc(S(=O)(=O)NC(C)C)cc2[nH]1 | 470 µM |
| COC(=O)Nc1nc2ccc(S(=O)(=O)NCc3ccc(OC)cc3)cc2[nH]1 | 3290 µM |
| CCCCCCNS(=O)(=O)c1ccc2nc(NC(=O)OC)[nH]c2c1 | 1800 µM |
| COC(=O)Nc1nc2ccc(S(=O)(=O)NCc3ccc(Br)cc3)cc2[nH]1 | 1640 µM |
| COC(=O)Nc1nc2ccc(S(=O)(=O)NCc3cccc(OC)c3)cc2[nH]1 | 7500 µM |
| COC(=O)Nc1nc2ccc(S(=O)(=O)NCc3ccc(C(F)(F)F)cc3)cc2[nH]1 | 10700 µM |
| COC(=O)Nc1nc2ccc(S(=O)(=O)Nc3cc(C)ccc3C)cc2[nH]1 | 8860 µM |
| COC(=O)Nc1nc2ccc(S(=O)(=O)NCc3cccc(C)c3)cc2[nH]1 | 5060 µM |
| COC(=O)Nc1nc2ccc(S(=O)(=O)N(CCC(C)C)CCC(C)C)cc2[nH]1 | 63 µM |
| CCCCNS(=O)(=O)c1ccc2nc(NC(=O)OC)[nH]c2c1 | 1770 µM |
| COC(=O)Nc1nc2ccc(S(=O)(=O)NCc3ccc(OC)c(OC)c3)cc2[nH]1 | 11500 µM |
| COC(=O)Nc1nc2ccc(S(=O)(=O)NCc3ccc(C)cc3)cc2[nH]1 | 3180 µM |
| COC(=O)Nc1nc2ccc(S(=O)(=O)NCc3ccc(Cl)c(Cl)c3)cc2[nH]1 | 4020 µM |
| COC(=O)Nc1nc2ccc(S(=O)(=O)NCc3ccc(Cl)cc3)cc2[nH]1 | 7520 µM |
| COC(=O)Nc1nc2ccc(S(=O)(=O)N(C)Cc3ccccc3)cc2[nH]1 | 1250 µM |

Second part, the molecule after the results:

| IC50 | SMILES |
| --- | --- |
| 2400 µM | COC(=O)Nc1nc2ccc(S(=O)(=O)NCc3ccc(F)cc3)cc2[nH]1 |
| 8420 µM | COC(=O)Nc1nc2ccc(S(=O)(=O)NCc3ccccc3OC)cc2[nH]1 |
| 1030 µM | COC(=O)Nc1nc2ccc(S(=O)(=O)NCc3ccccc3)cc2[nH]1 |
| 1810 µM | COC(=O)Nc1nc2ccc(S(=O)(=O)NCc3cccc(F)c3)cc2[nH]1 |
| 1550 µM | COC(=O)Nc1nc2ccc(S(=O)(=O)NCc3ccc(F)cc3F)cc2[nH]1 |
| 1590 µM | COC(=O)Nc1nc2ccc(S(=O)(=O)NCc3ccc(F)c(F)c3)cc2[nH]1 |
| 310 µM | COC(=O)Nc1nc2ccc(S(=O)(=O)NCc3ccccc3F)cc2[nH]1 |
| 5750 µM | COC(=O)Nc1nc2ccc(S(=O)(=O)NCc3ccccc3Cl)cc2[nH]1 |
| 1270 µM | COC(=O)Nc1nc2ccc(S(=O)(=O)NCc3ccc(Cl)cc3Cl)cc2[nH]1 |
